Several values for one entry are separate records, joined by “and”; a condition that tells them apart may be missing. Equal entries are not always repeated. Where two headings read alike, the source gives them in different places. Each block holds one molecule with its values, some of them ahead of it.
What was measured:
[1] = system: glutamate-induced 45Ca2+ uptake into synaptosomes of rat brain cortex; assay: Effect on glutamate-induced 45Ca2+ uptake into synaptosomes of rat brain cortex; format: biochemical, Wistar rats; conditions: for Percentage 45Ca2+ of Control (Control – 100%): 200 μM glutamate, 5 min, 37 °C; for overall inhibiting activity on calcium ion uptake, in words: whole concentration range 0.01–100 μM
[2] = format: physicochemical

mole fraction solubility (x) ([2]; 1-octanol, 293.15 K): 1.15 x · 10^4
A, parameter of the correlation equation lnx=A-B/T ([2]; 1-octanol, 293.15–313.15 K): 6.03 ± 0.15
B, parameter of the correlation equation lnx=A-B/T ([2]; 1-octanol, 293.15–313.15 K): 4423 ± 47
mole fraction solubility (x) ([2]; 1-octanol, 298.15 K): 1.47 x · 10^4
ΔGsol0, standard molar dissolution Gibbs energy ([2]; 1-octanol, 298.15 K): 5.23 kcal/mol
ΔHsol0, standard molar dissolution enthalpy ([2]; 1-octanol, 298.15 K): 8.8 kcal/mol
ΔSsol0, standard molar dissolution entropy ([2]; 1-octanol, 298.15 K): 50.0 J/mol⋅K
mole fraction solubility (x) ([2]; 1-octanol, 303.15 K): 1.91 x · 10^4
mole fraction solubility (x) ([2]; 1-octanol, 308.15 K): 2.42 x · 10^4
mole fraction solubility (x) ([2]; 1-octanol, 313.15 K): 3.01 x · 10^4
mole fraction solubility (x) ([2]; Buffer pH 7.4, 293.15 K): 2.66 x · 10^6
A, parameter of the correlation equation lnx=A-B/T ([2]; Buffer pH 7.4, 293.15–313.15 K): 0.12 ± 0.16
B, parameter of the correlation equation lnx=A-B/T ([2]; Buffer pH 7.4, 293.15–313.15 K): 3799 ± 50
mole fraction solubility (x) ([2]; Buffer pH 7.4, 298.15 K): 3.25 x · 10^6
ΔGsol0, standard molar dissolution Gibbs energy ([2]; Buffer pH 7.4, 298.15 K): 7.34 kcal/mol
ΔHsol0, standard molar dissolution enthalpy ([2]; Buffer pH 7.4, 298.15 K): 7.55 kcal/mol
ΔSsol0, standard molar dissolution entropy ([2]; Buffer pH 7.4, 298.15 K): 2.9 J/mol⋅K
mole fraction solubility (x) ([2]; Buffer pH 7.4, 303.15 K): 4.01 x · 10^6
mole fraction solubility (x) ([2]; Buffer pH 7.4, 308.15 K): 4.95 x · 10^6
mole fraction solubility (x) ([2]; Buffer pH 7.4, 313.15 K): 6.07 x · 10^6
mole fraction solubility (x) ([2]; Hexane, 293.15 K): 5.42 x · 10^4
A, parameter of the correlation equation lnx=A-B/T ([2]; Hexane, 293.15–313.15 K): 2.45 ± 0.12
B, parameter of the correlation equation lnx=A-B/T ([2]; Hexane, 293.15–313.15 K): 2922 ± 38
mole fraction solubility (x) ([2]; Hexane, 298.15 K): 6.39 x · 10^4
ΔGsol0, standard molar dissolution Gibbs energy ([2]; Hexane, 298.15 K): 4.35 kcal/mol
ΔHsol0, standard molar dissolution enthalpy ([2]; Hexane, 298.15 K): 5.81 kcal/mol
ΔSsol0, standard molar dissolution entropy ([2]; Hexane, 298.15 K): 13.1 J/mol⋅K
mole fraction solubility (x) ([2]; Hexane, 303.15 K): 7.47 x · 10^4
mole fraction solubility (x) ([2]; Hexane, 308.15 K): 8.87 x · 10^4
mole fraction solubility (x) ([2]; Hexane, 313.15 K): 10.22 x · 10^4
SMILES: CN1CCc2c(c3cc(Cl)ccc3n2CCc2n[nH]c(=S)n2C)C1 [V, 5-[2-(8-Chloro-2-methyl-1,2,3,4-tetrahydropyrido[4,3-b]indol-5-yl)ethyl]-4-methyl-2,4-dihydro[1,2,4]triazole-3-thione]
Percentage 45Ca2+ of Control (Control – 100%) ([1]; compound 0.01 μM): 103.5 ± 7.7%
Percentage 45Ca2+ of Control (Control – 100%) ([1]; compound 0.1 μM): 95.3 ± 1.0%
Percentage 45Ca2+ of Control (Control – 100%) ([1]; compound 0.5 μM): 102.2 ± 6.3%
Percentage 45Ca2+ of Control (Control – 100%) ([1]; compound 1 μM): 94.5 ± 4.7%
Percentage 45Ca2+ of Control (Control – 100%) ([1]; compound 5 μM): 80.7 ± 10.5%
Percentage 45Ca2+ of Control (Control – 100%) ([1]; compound 10 μM): 75.6 ± 10.0%
Percentage 45Ca2+ of Control (Control – 100%) ([1]; compound 50 μM): 93.3 ± 11.0%
Percentage 45Ca2+ of Control (Control – 100%) ([1]; compound 100 μM): 135.5% and 135.5 ± 9.4%
inhibition of glutamate-induced calcium ion uptake, most efficient ([1]; concentration of 5–10 μM): ~20%
overall inhibiting activity on calcium ion uptake, in words [1]: weak inhibitors of calcium ion uptake

mole fraction solubility (x) ([2]; 1-octanol, 293.15 K): 2.51 x · 10^4
A, parameter of the correlation equation lnx=A-B/T ([2]; 1-octanol, 293.15–313.15 K): 3.65 ± 0.15
B, parameter of the correlation equation lnx=A-B/T ([2]; 1-octanol, 293.15–313.15 K): 3501 ± 46
mole fraction solubility (x) ([2]; 1-octanol, 298.15 K): 3.01 x · 10^4
ΔGsol0, standard molar dissolution Gibbs energy ([2]; 1-octanol, 298.15 K): 4.8 kcal/mol
ΔHsol0, standard molar dissolution enthalpy ([2]; 1-octanol, 298.15 K): 6.96 kcal/mol
ΔSsol0, standard molar dissolution entropy ([2]; 1-octanol, 298.15 K): 30.2 J/mol⋅K
mole fraction solubility (x) ([2]; 1-octanol, 303.15 K): 3.68 x · 10^4
mole fraction solubility (x) ([2]; 1-octanol, 308.15 K): 4.39 x · 10^4
mole fraction solubility (x) ([2]; 1-octanol, 313.15 K): 5.30 x · 10^4
mole fraction solubility (x) ([2]; Buffer pH 7.4, 293.15 K): 8.34 x · 10^6
A, parameter of the correlation equation lnx=A-B/T ([2]; Buffer pH 7.4, 293.15–313.15 K): −2.96 ± 0.09
B, parameter of the correlation equation lnx=A-B/T ([2]; Buffer pH 7.4, 293.15–313.15 K): 2558 ± 27
mole fraction solubility (x) ([2]; Buffer pH 7.4, 298.15 K): 9.60 x · 10^6
ΔGsol0, standard molar dissolution Gibbs energy ([2]; Buffer pH 7.4, 298.15 K): 6.84 kcal/mol
ΔHsol0, standard molar dissolution enthalpy ([2]; Buffer pH 7.4, 298.15 K): 5.09 kcal/mol
ΔSsol0, standard molar dissolution entropy ([2]; Buffer pH 7.4, 298.15 K): -24.6 J/mol⋅K
mole fraction solubility (x) ([2]; Buffer pH 7.4, 303.15 K): 11.11 x · 10^6
mole fraction solubility (x) ([2]; Buffer pH 7.4, 308.15 K): 12.66 x · 10^6
mole fraction solubility (x) ([2]; Buffer pH 7.4, 313.15 K): 14.60 x · 10^6
mole fraction solubility (x) ([2]; Hexane, 293.15 K): 3.85 x · 10^4
A, parameter of the correlation equation lnx=A-B/T ([2]; Hexane, 293.15–313.15 K): 1.09 ± 0.1
B, parameter of the correlation equation lnx=A-B/T ([2]; Hexane, 293.15–313.15 K): 2624 ± 30
mole fraction solubility (x) ([2]; Hexane, 298.15 K): 4.47 x · 10^4
ΔGsol0, standard molar dissolution Gibbs energy ([2]; Hexane, 298.15 K): 4.57 kcal/mol
ΔHsol0, standard molar dissolution enthalpy ([2]; Hexane, 298.15 K): 5.21 kcal/mol
ΔSsol0, standard molar dissolution entropy ([2]; Hexane, 298.15 K): 9.1 J/mol⋅K
mole fraction solubility (x) ([2]; Hexane, 303.15 K): 5.11 x · 10^4
mole fraction solubility (x) ([2]; Hexane, 308.15 K): 5.96 x · 10^4
mole fraction solubility (x) ([2]; Hexane, 313.15 K): 6.81 x · 10^4
SMILES: CN1CCc2c(c3cc(F)ccc3n2CCc2n[nH]c(=S)n2C)C1 [Compound IV, 5-[2-(8-Fluoro-2-methyl-1,2,3,4-tetrahydropyrido[4,3-b]indol-5-yl)ethyl]-4-methyl-2,4-dihydro[1,2,4]triazole-3-thione]
Percentage 45Ca2+ of Control (Control – 100%) ([1]; compound 0.01 μM): 102.0 ± 9.8%
Percentage 45Ca2+ of Control (Control – 100%) ([1]; compound 0.1 μM): 78.7 ± 10.3%
Percentage 45Ca2+ of Control (Control – 100%) ([1]; compound 0.5 μM): 78.7 ± 8.0%
Percentage 45Ca2+ of Control (Control – 100%) ([1]; compound 1 μM): 83.2 ± 10.9%
Percentage 45Ca2+ of Control (Control – 100%) ([1]; compound 5 μM): 94.7 ± 8.5%
Percentage 45Ca2+ of Control (Control – 100%) ([1]; compound 10 μM): 93.4 ± 6.9%
Percentage 45Ca2+ of Control (Control – 100%) ([1]; compound 50 μM): 96.9 ± 6.0%
Percentage 45Ca2+ of Control (Control – 100%) ([1]; compound 100 μM): 87.1 ± 11.5%
inhibition of glutamate-induced calcium ion uptake ([1]; concentration of 1 μM): ~17%
effect on glutamate-induced calcium ion uptake, in words ([1]; concentration of 0.1–1 μM): can act as an inhibitor
effect on glutamate-induced calcium ion uptake, in words ([1]; concentration of 5–100 μM): had no effect
overall inhibiting activity on calcium ion uptake, in words [1]: weak inhibitors of calcium ion uptake
